# Results reported in patent US20200031811A1, “SUBSTITUTED MONO- AND POLYAZANAPHTHALENE DERIVATIVES AND THEIR USE” (Basilea Pharmaceutica International AG, priority 2015, published 2020).
# Key:
# [1] = target: T1, MNK1 (Homo sapiens, UniProt Q9BUB5); experiment: MNK inhibition assay (Z-Lyte kinase assay, Ser/Thr 7 peptide); assay type: biochemical; conditions: recombinant GST-MNK1, 3 hours at 31° C.
# T1 construct: purchased Life Technologies or Carna Biosciences PV6023 or 02-145; host or cells: baculovirus infected insect cells
# Method in brief: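 Recombinant GST-MNK1 from baculovirus-infected insect cells, Z-Lyte Ser/Thr 7 peptide, enzyme set for ~30% phosphorylation in buffer-only wells; 3 hours at 31° C. Compounds at 50–10000 nM (potent ones down to 0.5 nM), at least duplicate. IC50 from % substrate phosphorylation versus buffer-only wells, fluorescence read-out.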
# [2] = system: human pancreatic cancer cell line MiaPaCa2 (ATCC CRL-1420); experiment: Cell growth assay (CellTiterGlo, 72 hours); assay type: cell-based; conditions: MIA PaCa-2, MiaPaCa2 cells, 72 hours, read-out: IC50 MiaPaCa
# Method in brief: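 MiaPaCa2 cells (10^3/well) seeded in supplemented DMEM overnight, then exposed in quadruplicate to compound at 100 down to 0.1 μM for 72 h at 37° C. Growth read by CellTiterGlo luminescence, medium-only background subtracted, normalised to untreated cells; IC50 = concentration reducing growth to 50%.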
# [3] = system: HCT116 colon carcinoma xenograft; conditions: nude mice; cited from earlier work
# [4] = system: B16 melanoma pulmonary metastatic lesions; conditions: in vivo; cited from earlier work
# T1 sequence (Q9BUB5 whole entry): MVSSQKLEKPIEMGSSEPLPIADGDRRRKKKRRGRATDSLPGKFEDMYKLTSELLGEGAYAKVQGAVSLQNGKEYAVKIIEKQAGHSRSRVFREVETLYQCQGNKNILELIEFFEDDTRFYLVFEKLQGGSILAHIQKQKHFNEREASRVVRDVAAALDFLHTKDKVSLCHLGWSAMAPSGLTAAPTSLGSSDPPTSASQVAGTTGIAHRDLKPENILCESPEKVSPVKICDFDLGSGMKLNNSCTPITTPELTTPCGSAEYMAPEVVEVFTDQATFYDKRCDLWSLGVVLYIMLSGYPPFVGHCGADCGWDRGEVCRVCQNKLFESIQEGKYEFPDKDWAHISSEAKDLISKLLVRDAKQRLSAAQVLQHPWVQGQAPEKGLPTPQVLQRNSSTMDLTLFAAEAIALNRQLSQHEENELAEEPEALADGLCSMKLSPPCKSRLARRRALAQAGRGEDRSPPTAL
Compound,IC50 [1] [nM],IC50 [2] [µM],growth of a HCT116 colon carcinoma xenograft model [3],outgrowth of B16 melanoma pulmonary metastatic lesions [4]
COc1cc(CN2CCC(N)CC2)cc2c(-c3ccc(F)c(F)c3)cncc12 [Example 243],347,5.73,,
NC1CCN(Cc2ccc3cncc(-c4ccc(CO)cc4)c3c2)CC1 [Example 181],522,22.8,,
CC(=O)C1=C(O)C=C2Oc3c(C(N)=O)c(O)cc(O)c3[C@]2(C)C1=O [cercosporamidc],,,inhibiting the growth,reduceing the outgrowth

# Now from value to molecule, other results behind:
IC50 [1] [nM],IC50 [2] [µM],Compound,growth of a HCT116 colon carcinoma xenograft model [3],outgrowth of B16 melanoma pulmonary metastatic lesions [4]
312,4.58,"Nc1ncc(-c2ccccc2)c2cc(N[C@H]3CC[C@H](N)CC3)ccc12 [Example 317, trans-N6-(4-aminocyclohexyl)-4-phenyl-isoquinoline-1,6-diamine]",,
38,2.85,Nc1ncc(-c2ccccc2)c2cc(O[C@H]3CC[C@H](N)CC3)cc(Cl)c12 [Example 319],,
